Test results: patent US6552167B1, “Polyamide chains of precise length” (Gryphon Therapeutics, Inc., priority 1998, dated 2003)
Positions of bridges follow the written chain, without caps; N, C: chain ends. 'PEG'‑succ = not defined here

Tests used:
BCL, turnor cell line = settings: disulfide bond between the cysteines; Terskikh, et al.; cited from earlier work
Solubility in solvents = type: physicochemical
elastase = experiment: Polyamide stability to protease digestion, HPLC analysis (elastase); settings: 24 hours; 1 mg/ml in 1% ammonium bicarbonate, enzyme:substrate 1:100, 37° C.
Method: (§1) The compounds produced in Examples 8 and 9 were separately dissolved at 1 mg/ml in a 1% ammonium bicarbonate solution. In separate tubes, these solutions were treated with trypsin, chymotrypsin and elastase (enzyme:substrate ratio 1:100, 37° C.). Aliquots (20 μl) were withdrawn at intervals and analyzed by HPLC.

trypsin = experiment: Polyamide stability to protease digestion, HPLC analysis (trypsin); settings: 24 hours; 1 mg/ml in 1% ammonium bicarbonate, enzyme:substrate 1:100, 37° C.
Method: as §1

chymotrypsin = experiment: Polyamide stability to protease digestion, HPLC analysis (chymotrypsin); settings: 24 hours; 1 mg/ml in 1% ammonium bicarbonate, enzyme:substrate 1:100, 37° C.
Method: as §1

[1] = tested on: human leukemic UT-7 EPO dependent cell line; experiment: EPO activity in a cell culture assay (UT-7 EPO dependent cell line); type: cell-based; settings: for ED50 (effective dose giving 50% of maximum response): UT-7 EPO dependent cell line
Method: Precise Length EMP-dimers with linkers of different lengths were assayed for EPO activity in a cell culture assay (human leukemic UT-7 EPO dependent cell line). Recombinant EPO and the EMP monomer peptides were included as controls, where the monomer is designated as “mono” in Table 1.
The short linker in the precise length EMP-dimer (designated “s” in Table 1) was -(‘PEG’-succ)2-‘PEG’-(succ-‘PEG’)2-. The medium linker (designated “m” in Table 1) was -(‘PEG’-succ)6-‘PEG’-(succ-‘PEG’)6- and the long linker (designated “1” in Table 1) was -(‘PEG’-succ)8-‘PEG’-(succ-‘PEG’)8-.
Table 1 presents the mean OD's for each peptide sample.
Table 2 presents the mean OD's for recombinant EPO sample.
It was clear, from the results presented above, that the ED50 (effective dose giving 50% of maximum response) values were as presented in Table 3.

## ADGACRNPWC (H-ADGACRNPWC-{'PEG'‑succ-'PEG'‑succ-'PEG'‑succ-'PEG'‑succ-'PEG'‑succ-'PEG'‑succ-'PEG'‑succ-'PEG'‑succ-Lys(AoA)-NH2}; disulfide 5-10 (inferred); reading uncertain; also: four copies oximated to fluorescein-labelled Lys2Lys template (tetrameric chemobody)) [phage-derived peptide]
BCL, turnor cell line
  binding to the BCL tumor cell line: bound

## Fmoc-Ser(But)-(‘PEG’-succ)8-Abu-OH
Solubility in solvents
  solubility in the water/acetonitrile/TFA HPLC solvent system: perfectly soluble

## H-PQPQPKPQPQPQPQPKPQPKPEPE-NH2 [SEQ ID NO:5]
elastase
  digestion by elastase: stable
trypsin
  digestion by trypsin: digested extensively
chymotrypsin
  digestion by chymotrypsin: stable

## Recombinant EPO: recombinant erythropoietin, control
[1]; EPO 1.85 ng/ml
  mean OD: .878
[1]; EPO 5.56 ng/ml
  mean OD: .885
[1]; EPO 16.7 ng/ml
  mean OD: .920
[1]; EPO 50 ng/ml
  mean OD: .917
[1]; EPO .00254 ng/ml
  mean OD: .101
[1]; EPO .00762 ng/ml
  mean OD: .108
[1]; EPO .0229 ng/ml
  mean OD: .124
[1]; EPO .0686 ng/ml
  mean OD: .179
[1]; EPO .206 ng/ml
  mean OD: .362
[1]; EPO .617 ng/ml
  mean OD: .650
[1]
  ED50 (effective dose giving 50% of maximum response): 25 pM

## amide-GRLPQCVWTMPGMHCAYLGG-COCH2ON═CH—CO-(‘PEG’-succ)12-‘PEG’-CH═NOCH2CO-GGLYACHMGPMTWVCQPLRG-amide [EMP-m (medium dimer)]
[1]
  ED50 (effective dose giving 50% of maximum response): 1 pM
[1]; concentration 1 × 10^−1 μM
  mean OD: .884
[1]; concentration 1.11 × 10^−2 μM
  mean OD: .876
[1]; concentration 1.24 × 10^−3 μM
  mean OD: .916
[1]; concentration 1.37 × 10^−4 μM
  mean OD: .760
[1]; concentration 1.52 × 10^−5 μM
  mean OD: .597
[1]; concentration 1.69 × 10^−6 μM
  mean OD: .641
[1]; concentration 1.88 × 10^−7 μM
  mean OD: .363
[1]; concentration 2.09 × 10^−8 μM
  mean OD: .287
[1]; concentration 2.32 × 10^−9 μM
  mean OD: .246
[1]; concentration 3.33 × 10^−2 μM
  mean OD: .902
[1]; concentration 3.70 × 10^−3 μM
  mean OD: .888
[1]; concentration 4.12 × 10^−4 μM
  mean OD: .805
[1]; concentration 4.57 × 10^−5 μM
  mean OD: .637
[1]; concentration 5.08 × 10^−6 μM
  mean OD: .712
[1]; concentration 5.65 × 10^−7 μM
  mean OD: .469
[1]; concentration 6.27 × 10^−8 μM
  mean OD: .350
[1]; concentration 6.97 × 10^−9 μM
  mean OD: .280

## erythropoietin mimetic peptide monomer, GGLYACHMGPMTWVCQPLRG (SEQ ID NO:1), control [EMP monomer, reference compound]
[1]
  ED50 (effective dose giving 50% of maximum response): 20,000 pM
[1]; concentration 1 × 10^−1 μM
  mean OD: .878
[1]; concentration 1.11 × 10^−2 μM
  mean OD: .373
[1]; concentration 1.24 × 10^−3 μM
  mean OD: .078
[1]; concentration 1.37 × 10^−4 μM
  mean OD: .089
[1]; concentration 3.33 × 10^−2 μM
  mean OD: .673
[1]; concentration 3.70 × 10^−3 μM
  mean OD: .210
[1]; concentration 4.12 × 10^−4 μM
  mean OD: .078
